{"source": "paper PMC7279487", "about": "“Dual Target Ligands with 4-tert-Butylphenoxy Scaffold as Histamine H3 Receptor Antagonists and Monoamine Oxidase B Inhibitors” (International Journal of Molecular Sciences, 2020)", "key": {"human MAO A": {"biological_target": "T1, human MAO A (Homo sapiens, UniProt P21397)", "T1 construct": "purchased Sigma Aldrich M7316", "T1 sequence (P21397 1-527)": "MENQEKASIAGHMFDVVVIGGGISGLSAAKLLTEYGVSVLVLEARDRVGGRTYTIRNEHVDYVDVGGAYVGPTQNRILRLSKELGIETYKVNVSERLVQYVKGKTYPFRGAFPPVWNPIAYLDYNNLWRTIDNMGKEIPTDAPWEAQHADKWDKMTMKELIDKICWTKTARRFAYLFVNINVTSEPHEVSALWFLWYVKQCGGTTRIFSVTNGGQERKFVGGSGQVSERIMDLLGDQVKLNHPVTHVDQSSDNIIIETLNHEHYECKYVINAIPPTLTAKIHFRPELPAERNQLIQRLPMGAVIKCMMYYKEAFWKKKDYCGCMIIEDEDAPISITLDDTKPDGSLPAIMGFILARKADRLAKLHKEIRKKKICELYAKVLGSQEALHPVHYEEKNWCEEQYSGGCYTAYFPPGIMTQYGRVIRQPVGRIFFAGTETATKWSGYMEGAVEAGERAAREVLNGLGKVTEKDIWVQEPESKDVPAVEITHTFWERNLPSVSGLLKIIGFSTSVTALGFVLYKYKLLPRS", "experiment": "hMAO A inhibition, fluorometric Amplex Red MAO assay", "assay_type": "biochemical", "settings": "mean ± SEM; p-tyramine 200 μM", "description": "Inhibitory potency of compounds on MAO isoenzymes were carried out by a fluorometric method with a commercial Amplex™ Red Monoamine Oxidase Assay Kit (ThermoFisher Scientific A12214, Waltham, MA, USA) as described previously. For all tests, recombinant human MAO B and MAO A (from Sigma AldrichM7441 and M7316, Darmstadt, Germany) were used. Inhibitors’ activity was measured in the presence of p-tyramine (200 μM).\n[…] […] All calculations were made in Microsoft Excel and GraphPadPrism software. All experiments were performed in duplicate, and data are expressed as mean ± SEM of 2–5 independent experiments."}, "hMAO B": {"biological_target": "T2, hMAO B (Homo sapiens, UniProt P27338)", "T2 construct": "purchased Sigma Aldrich M7441", "T2 sequence (P27338 1-520)": "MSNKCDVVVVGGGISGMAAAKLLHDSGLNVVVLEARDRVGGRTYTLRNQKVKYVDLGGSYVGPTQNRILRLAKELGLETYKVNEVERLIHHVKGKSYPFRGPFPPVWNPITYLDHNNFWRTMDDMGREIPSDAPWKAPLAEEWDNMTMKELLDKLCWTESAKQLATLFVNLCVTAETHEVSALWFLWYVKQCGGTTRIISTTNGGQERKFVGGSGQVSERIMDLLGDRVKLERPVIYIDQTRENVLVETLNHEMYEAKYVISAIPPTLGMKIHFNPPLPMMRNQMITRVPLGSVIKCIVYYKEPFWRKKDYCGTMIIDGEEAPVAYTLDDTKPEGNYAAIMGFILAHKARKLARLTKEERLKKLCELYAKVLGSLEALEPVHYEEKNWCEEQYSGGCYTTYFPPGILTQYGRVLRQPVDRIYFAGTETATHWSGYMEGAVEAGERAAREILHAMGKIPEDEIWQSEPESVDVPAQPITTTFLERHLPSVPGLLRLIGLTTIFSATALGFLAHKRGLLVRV", "experiment": "hMAO B reversibility studies", "assay_type": "biochemical", "settings": "inhibitor at IC80; without preincubation; compared with safinamide and rasagiline", "description": "Reversibility of MAO B inhibitors was tested as described previously with slight modification. Two experiments were performed simultaneously. In the first experiment, inhibitors (in concentrations corresponding to their IC80 values) were incubated with the enzyme and p-tyramine (10 μM) for 22 min (measuring fluorescence every two minutes)."}, "[1]": {"test_system": "haloperidol-induced catalepsy", "experiment": "haloperidol-induced catalepsy, bar test", "assay_type": "in vivo, Wistar rats", "settings": "for Times of Observation of Catalepsy (s), 0 min / Times of Observation of Catalepsy (s), 3 min / Times of Observation of Catalepsy (s), 6 min: mean ± SEM (n = 6)", "description": "Haloperidol (dopamine D2 antagonist)-induced catalepsy in rodents is a popular model for screening of antiparkinsonian activity of compounds [21]. Caused symptoms in animals are similar to the inability of PD patients to initiate movements. […] The reversal of catalepsy was tested for 6 min (3 times in 3 min intervals) after 1 h of haloperidol administration. As the reference compound was used MSX-3, the adenosine A2A receptor antagonist with confirmed ability to reverse catalepsy mediated by D1 and D2 receptor antagonists.\nHaloperidol-induced catalepsy was not reduced by DL-76 administrated at a dose of 25 mg/kg body weight (Table 3). After administration of DL-76 at a dose of 50 mg/kg body weight, low antiparkinsonian activity in the bar test was observed. […] This effect was weaker than the anti-Parkisonian activity of MSX-3.\nThe experiments were carried out on male rats Wistar (180–220 g). Animals were housed in plastic cages in room at a constant temperature of 20 ± 2 °C with natural light–dark cycles. The animals had free access to standard pellet diet and water and were used after a minimum of 3 days of acclimatization to the housing conditions. Control and experimental groups consisted of 6 animals each. All experimental procedures were performed according to the European Union Directive of 22 September 2010 (2010/63/EU) and Polish legislation concerning animal care and use and was approved by the Local Ethics Committee for Experiments on Animals in Kraków, Poland (Resolution No. 70/2014, approval date: 20 May 2014). The examined compound was administered as the suspension in 0.5% methylcellulose in constant volume of 10 mL/kg.\nAntiparkinsonian activity in catalepsy tests was performed as described in [28]. Haloperidol was administered s.c. at a dose of 0.63 mg/kg, which in 100% of control animals caused catalepsy. Tested compounds were administered i.p. at the doses 50 and 25 mg/kg body weight, 5 min after haloperidol injection. After 60 min from the injection of haloperidol, to assess the occurrence of catalepsy, the animals were placed in a forced position and the time they remained in this position was measured. Two tests were performed to determine the antiparkinsonian activity: crossed leg position test and bar test. In the first test, the animals were put on the hind paws behind the front (forced position); in the second, the animals were supported on a wooden block (the front paws were placed on a block suspended 10 cm above the ground). Then, the time that the animals remain is measured in a forced position (time was measured to a maximum of 60 s). Observation was carried out 3 times in 3-min intervals. The shortening of the time of catalepsy to the control group was adopted for the antiparkinsonian activity."}}, "data": [{"smiles": "CC(C)(C)c1ccc(OCCCN2CCCCC2)cc1", "note": "[DL76, 1-(3-(4-tert-butylphenoxy)propyl)piperidine]", "values": [{"measurement": "IC50", "setting": "human MAO A", "result": "> 10", "unit": "µM"}, {"measurement": "type of hMAO B inhibition (reversible or irreversible)", "setting": "hMAO B", "result": "reversible"}, {"measurement": "reduction of haloperidol-induced catalepsy", "setting": "[1]; 25 mg/kg body weight", "result": "not reduced"}, {"measurement": "Times of Observation of Catalepsy (s), 0 min", "setting": "[1]; 25 mg/kg i.p.", "result": "19.5 ± 4.2", "unit": "s"}, {"measurement": "Times of Observation of Catalepsy (s), 3 min", "setting": "[1]; 25 mg/kg i.p.", "result": "26.5 ± 3.5", "unit": "s"}, {"measurement": "Times of Observation of Catalepsy (s), 6 min", "setting": "[1]; 25 mg/kg i.p.", "result": "30.0 ± 0", "unit": "s"}, {"measurement": "duration of catalepsy (versus control 25.8)", "setting": "[1]; 50 mg/kg body weight", "result": 16.4}, {"measurement": "reduction of the duration of catalepsy compared to the control group", "setting": "[1]; 50 mg/kg body weight", "result": 36.4, "unit": "%"}, {"measurement": "Times of Observation of Catalepsy (s), 0 min", "setting": "[1]; 50 mg/kg i.p.", "result": "13.8 ± 5.9", "unit": "s"}, {"measurement": "Times of Observation of Catalepsy (s), 3 min", "setting": "[1]; 50 mg/kg i.p.", "result": "13.5 ± 4.2", "unit": "s"}, {"measurement": "Times of Observation of Catalepsy (s), 6 min", "setting": "[1]; 50 mg/kg i.p.", "result": "22.0 ± 5.0", "unit": "s"}]}]}
